Assays:
Format in all cases: cell-based
[1] = system: human coronary artery endothelial cells (hCaEC); experiment: cytokine production by TNFα-treated human coronary artery endothelial cells (ELISA); settings: TNFα (5 ng/ml), 24 hours
Method: (§1) Experiments were performed to determine the effects of zotarolimus, sirolimus and dexamethasone on the production of TNFα, IL-6 and MCP-1 by activated human monocytes In addition to monocytes and macrophages two other key cell types are involved in the etiology of restenosis, arterial smooth muscle and endothelial cells. These cells are activated and produce cytokines in response to TNFα. […] The activation of cytokine production by human coronary artery smooth muscle and endothelial cells following TNFα treatment was determined by measuring interleukine-8 (IL-8), MCP-1 and IL-6 production. As shown by the results of the experiments described below, the ability of these compounds to inhibit the production of cytokines supports their use in combination as anti-restenotic agents since these cytokines play a role in the development of restenosis. […] After 24 hours, the supernatants were carefully collected and TNFα, IL-6 and MCP-1 levels determined by ELISA. Primary cultures of human coronary artery endothelial and smooth muscle cells were obtained from Cambrex and maintained as described by the vendor. […] After 24 hours the supernatants were removed and replaced with media containing TNFα (5 ng/ml) in the presence and absence of various concentrations of zotarolimus, dexamethasone or sirolimus. The cells were incubated for 24 hours and the supernatants carefully removed and frozen until measurement. Cytokine levels were measured in the supernatants by sandwich ELISA.

[2] = system: human coronary artery smooth muscle cells (hCaSMC); experiment: cytokine production by TNFα-treated human coronary artery smooth muscle cells (ELISA); settings: hCaSMC, TNFα (5 ng/ml), 24 hours
Method: as §1

[3] = system: human coronary artery smooth muscle cells (hCaSMC); experiment: 3H-thymidine uptake proliferation assay, hCaSMC; settings: Homo sapiens, 3 h; read-out: hCaSMC IC50 Mean ± SEM
Method: Experiments were performed to investigate interactions between zotarolimus and the corticosteroid dexamethasone. The effect of dexamethasone on the antiproliferative activity of zotarolimus in human coronary artery smooth muscle ([…]) and endothelial […] determined using an in vitro proliferation assay. The proliferation and migration of vascular smooth muscle cells into the vascular neointima is a characteristic pathologic response seen in restenotic lesions (A. Lafont and P. Libby, The smooth muscle cell: sinner or saint in restenosis and the acute coronary syndromes? […] As a result, in vitro assays which specifically measure the antiproliferative activity of candidate anti-restenotic compounds on human coronary artery smooth muscle and endothelial cells should predict potential anti-restenotic activity in vivo. The tritium incorporation assay is an accurate and sensitive method used in the art to determine cell number and proliferation. Compounds or combinations of compounds which attenuate growth factor-mediated human coronary artery smooth muscle cell […]) proliferation, as measured by the tritium incorporation assay in vitro, are candidate anti-restenotic agents. […] Cell proliferation was monitored by following incorporation of ^3H-thymidine into newly synthesized DNA of cells stimulated by serum and growth factors. Exponentially growing […] were seeded into 96-well flat bottom tissue culture plates at 5,000 cells/well (10,000 cells/well for […]). The cells were allowed to attach overnight. The growth medium was removed the following day and cells were washed twice with unsupplemented (basal) medium to remove traces of serum and growth factors. Basal medium (200 μl) was added to each well and the cells incubated in medium lacking growth factors and serum to starve and synchronize them in the G0 state. After starvation (48 hours for […] and 39 hours for […]) in medium lacking serum and growth factors, the cells were replenished with 200 μl supplemented medium in the absence or presence of drugs at the desired concentrations. […] After a 72-hour incubation period, 25 μl (1 μCi/well) of ^3H-thymidine (Amersham Biosciences) were added to each well. The cells were incubated at 37° C. for 16-18 hours to allow incorporation of ^3H-thymidine into newly synthesized DNA and the cells harvested onto 96-well plates containing bonded glass fiber filters using a cell harvester (Harvester 9600, TOMTEC). […] Controls included medium only, starved cells and cells in complete medium. Drug activity was established by determining the inhibition of ^3H-thymidine incorporation into newly synthesized DNA relative to cells grown in complete medium. […] The final IC50s are means of the 3-4 experiments. In these experiments, the x-axis represents the concentration of the drug being varied. For most of these curves that is zotarolimus alone and in combination with a fixed concentration of dexamethasone. Each graph contains a dexamethasone alone curve and a zotarolimus alone curve. The set of curves in each graph is generated by adding dexamethasone at a fixed concentration (1, 5, 10 or 25 nM) to various concentrations of zotarolimus (0, 0.04, 0.08, 0.8, 4, 8, 40 nM). Each curve represents the dose-response of zotarolimus (whose concentration is given on the x-axis) in the presence of the fixed concentration of dexamethasone given in the legend). […] The concentration eliciting a specific antiproliferative effect was determined using a 4-parameter equation (Equation 1). […]

CO[C@H]1C[C@@H]2CC[C@@H](C)[C@@](O)(O2)C(=O)C(=O)N2CCCC[C@H]2C(=O)O[C@H]([C@H](C)C[C@@H]2CC[C@H](n3cnnn3)[C@H](OC)C2)CC(=O)[C@H](C)/C=C(\C)[C@@H](O)[C@@H](OC)C(=O)[C@H](C)C[C@H](C)/C=C/C=C/C=C/1C [zotarolimus]
Maximal Inhibitory Activity, IL-6 [1]: − (− indicates maximal inhibitory activity less than 50% of control)
Maximal Inhibitory Activity, Il-8 [1]: − (− indicates maximal inhibitory activity less than 50% of control)
Maximal Inhibitory Activity, MCP-1 [1]: − (− indicates maximal inhibitory activity less than 50% of control)
Maximal Inhibitory Activity, IL-6 [2]: − (− indicates maximal inhibitory activity less than 50% of control)
Maximal Inhibitory Activity, Il-8 [2]: − (− indicates maximal inhibitory activity less than 50% of control)
Maximal Inhibitory Activity, MCP-1 [2]: − (− indicates maximal inhibitory activity less than 50% of control)
IC50 [3]: 6.2 ± 1.2 nM
